How the values were obtained:
NAD(P)H oxidase = experiment: Non-mitochondrial ROS/H2O2 production by NAD(P)H oxidase (Amplex Red); assay type: biochemical; conditions: no mitochondria; for effect on ROS measurement with NAD(P)H oxidase: 10 to 100 μM; for averaged percentage of ROS production across all concentrations tested: NAD(P)H oxidase, FIG. 22A
Protocol: Rates of ROS/H2O2 production from heart mitochondria were assessed through the oxidation of the colorless, non-fluorescent indicator Amplex Red in the presence of exogenous horseradish peroxidase (HRP, EC 1.11.1.7, Sigma). H2O2 reacts with Amplex Red in a 1:1 stoichiometry, yielding the fluorescent compound resorufin (excitation: 560 nm; emission: 585 nm) which is stable once formed. Fluorescence was measured continuously with a spectro-fluorometer equipped with temperature control and stirring (SAFAS Xenius, Monaco). Isolated mitochondria (0.1 mg/mL) were incubated in the same experimental buffer than previously, supplemented with 15 μM Amplex Red and 10 μg/mL HRP. Glutamate (5 mM)/malate (2.5 mM) together with succinate (5 mM) were used as complex I and complex II substrates, respectively. Experiments were conducted under non-phosphorylating conditions in the presence of 15 μM atractyloside, i.e., under state IV conditions where […]. Afterwards, rotenone (1.5 μM), antimycin A (2 μM), and myxothiazol (0.2 μM) were sequentially added to inhibit the redox centers within the electron transfer chain (FIG. 2), namely sites IQ, IF (with rotenone), IIIQi (with antimycin A) and IIIQO (with myxothiazol). Assay was finally calibrated with known amounts of H2O2 (steps of 300 nM), in the presence of all relevant compounds, including AOL. The control test of the absence of effect of AOL on the Amplex Red assay itself and NAD(P)H oxidase ROS/H2O2 production was carried out in the absence of cardiac mitochondria and the presence of NAD(P)H oxidase (EC 1.6.3.3, 5 mU/mL, Sigma) and NADH (100 μM) solutions.
The specificity of AOL was further tested in vitro using the peroxidase-Amplex Red system utilized for the measurement of ROS/H2O2 by mitochondria, which in fact measures the appearance of H2O2 by the oxidation of Amplex Red to the fluorescent resorufin (see FIG. 4). In the absence of mitochondria and by adding instead a H2O2-producing system to the measuring system, it was possible to test the effect of AOL on this system. This has been carried out by using commercial NAD(P)H oxidase which produces H2O2 in the presence of added NAD(P)H and measuring the reduction of Amplex Red to resorufin (FIG. 4).
Isolated mitochondria (0.1 mg/mL) were incubated in the same experimental buffer than previously, supplemented with 15 μM Amplex Red and 10 μg/mL HRP. Glutamate (5 mM)/malate (2.5 mM) together with succinate (5 mM) were used as complex I and complex II substrates, respectively. Experiments were conducted under non-phosphorylating conditions in the presence of 15 μM atractyloside. Afterwards, rotenone (1.5 μM), antimycin A (2 μM), and myxothiazol (0.2 μM) were sequentially added to inhibit the redox centers within the electron transfer chain (see FIG. 2), namely sites IQ, IF (with rotenone), IIIQi (with antimycin A) and IIIQO (with myxothiazol). Assay was finally calibrated with known amounts of H2O2 (steps of 300 nM), in the presence of all relevant compounds, including AOX. The control test of the absence of effect of AOL, AOX and Oltipraz on the Amplex Red assay itself and NAD(P)H oxidase […] production was carried out in the absence of cardiac mitochondria and the presence of NAD(P)H oxidase (EC 1.6.3.3, 5 mU/mL, Sigma) and NADH (100 μM) solutions.
The mechanism of action of AOX was further tested in vitro using the peroxidase-Amplex Red system utilized for the measurement of ROS/H2O2 by mitochondria, which in fact measures the appearance of H2O2 by the oxidation of Amplex Red to the fluorescent resorufin (FIG. 22). In the absence of mitochondria and by adding instead a H2O2-producing system to the assay, it was possible to test the effect of AOX on this non-mitochondrial superoxide/H2O2 production. This has been carried out by using commercial NAD(P)H oxidase which produces H2O2 in the presence of added NAD(P)H and measuring the reduction of Amplex Red to resorufin. […]

site IQ = experiment: ROS/H2O2 production, site targeted individually (96-well Amplex Red), 10 mM succinate alone; assay type: biochemical, rat; conditions: 0 to 80 μM; effect at concentrations as low as 2.5 μM
Protocol: After freshly isolating mitochondria from rat heart, then measuring protein quantity of the mitochondrial suspension, H2O2 production in response to the exogenous addition of increasing concentrations of AOL, AOX and Oltipraz was measured fluorimetrically with Amplex Red and horseradish peroxidase (HRP).
The two major sites of mitochondrial ROS/H2O2 production were targeted individually using the combination of succinate (energy substrate of respiratory complex 2) and known inhibitors of respiratory chain, namely for site IQ, 10 mM succinate alone (CCCP as positive control) and for site IIIQouter, 10 mM succinate, 4 μM rotenone and 2.5 μM antimycin A (myxothiazol as positive control). These “reaction” solutions were designed to generate maximal rates of ROS/H2O2 production predominantly from a single site within the chain (Quinlan et al. 2013. Redox Biol. 1:304-12).
For measurement, a working solution of 50 μM Amplex red reagent and 20 μg/ml HRP was mixed to the reaction buffer into the corresponding wells of a 96-well plate (Greiner 96 F-bottom), in the absence or presence of increasing concentrations (from 0 to 80 μM) of AOL, AOX or Oltipraz. Addition of mitochondria to a final concentration of 0.125 mg/mL per well initiated the assay. The appropriate total volume per microplate well was 200 μL.
Plates were incubated in the dark at room temperature for 20-25 minutes. A double orbital shaking (100 rpm-3 seconds) was applied before reading the endpoint fluorescence values on a CLARIOstar plate reader (BMG LABTECH GmbH, Germany). In fact, H2O2 reacts with Amplex Red in a 1:1 stoichiometry, yielding the fluorescent compound resorufin that was analyzed using the following optic settings (excitation wavelength at 546-20 nm; emission at 600-40 nm; gain: 750).
Also, an H2O2 standard curve, with concentrations ranging from 0 to 5 μM, was prepared in the experimental buffer that consisted in (in mM): 140 sucrose, 100 KCl, 1 EGTA, 20 MgCl2, 10 KH2PO4, and 1 g/L (w/v) BSA essentially fatty acid free (pH 7.2). […]

Row | SMILES | effect on ROS measurement with NAD(P)H oxidase (NAD(P)H oxidase) | averaged percentage of ROS production across all concentrations tested (NAD(P)H oxidase) [%] | inhibition of ROS production in site IQ (site IQ) | inhibition of fluorescence in NAD(P)H oxidase/Amplex Red system (NAD(P)H oxidase; results not shown)
1 | Oc1ccc(-c2cc(=S)ss2)cc1 [AOX, 5-(4-hydroxyphenyl)-3H-1,2-dithiole-3-thione] | no global effect | 109.9 | strongly inhibit the ROS production by complex I | –
2 | COc1ccc(-c2cc(=S)ss2)cc1 [AOL, 5-(4-methoxyphenyl)-3H-1,2-dithiole-3-thione] | no global effect | 99.2 | strongly inhibit the ROS production by complex I | did not observe any inhibition

Reference: patent publication US11484529B2, “Desmethylanethole trithione derivatives for the treatment of diseases linked to mitochondrial reactive oxygen species (ROS) production” (OP2 Drugs, priority 2017, dated 2022)
